# Laboratory results from PMC10939774 (Antiviral research, 2024).
# Tests used:
# HBV = details: patients; ref Bogomolov et al., 2016; cited from earlier work
# HepG2.2.15-derived HBV = HepG2.2.15-derived HBV infection of HepG2-NTCP cells, HBsAg in culture medium; type: cell-based, hepatitis B virus; details: 10 μM, HBsAg on Day 12 post-infection
# HepG2.2.15 cells [1] = assay: HBsAg production from HepG2.2.15 cells; type: cell-based, hepatitis B virus; details: 10 μM, 7 days of culture
# HBV genotype C = assay: HBV infection of human primary hepatocytes; type: cell-based, hepatitis B virus; details: 10 μM virus treatment; day 12 after infection; P < 0.0001 vs Ctn
# HepG2.2.15 cells [2] = details: 10 μM, 7 days of culture
# HepG2-NTCP cells = assay: Cell viability by WST-8 assay in HepG2-NTCP cells; details: 10 μM, 7 days, absorbance 450 nm
compound,measurement,setting,value
myrcludex-B,Improvement in clinical conditions and HBV DNA and HBsAg levels,HBV,limited improvement
CC[C@H](C)[C@H](NC(=O)[C@H](CCCCN)NC(=O)[C@H](CCC(=O)O)NC(=O)[C@H](CCCCN)NC(=O)[C@H](CO)NC(=O)[C@H](CCCCN)NC(=O)[C@H](CCCNC(=N)N)NC(=O)[C@H](Cc1ccccc1)NC(=O)[C@H](Cc1ccccc1)NC(=O)[C@H](CC(=O)O)NC(=O)CNC(=O)[C@H](CC(C)C)NC(=O)[C@@H](N)CC(C)C)C(=O)NCC(=O)N[C@@H](CCCCN)C(=O)N[C@@H](CCC(=O)O)C(=O)N[C@@H](Cc1ccccc1)C(=O)N[C@@H](CCCCN)C(=O)N[C@@H](CCCNC(=N)N)C(=O)N[C@H](C(=O)N[C@H](C(=O)N[C@@H](CCC(N)=O)C(=O)N[C@@H](CCCNC(=N)N)C(=O)N[C@H](C(=O)N[C@@H](CCCCN)C(=O)N[C@@H](CC(=O)O)C(=O)N[C@@H](Cc1ccccc1)C(=O)N[C@@H](CC(C)C)C(=O)N[C@@H](CCCNC(=N)N)C(=O)N[C@@H](CC(N)=O)C(=O)N[C@@H](CC(C)C)C(=O)N[C@H](C(=O)N1CCC[C@H]1C(=O)N[C@@H](CCCNC(=N)N)C(=O)N[C@H](C(=O)N[C@@H](CCC(=O)O)C(=O)N[C@@H](CO)C(=O)O)[C@@H](C)O)C(C)C)[C@@H](C)CC)C(C)C)[C@@H](C)CC [LL-37],Effect on HBsAg level of pre-treatment of cells only,HepG2.2.15-derived HBV; HepG2-NTCP cells treated 24 hours before infection,minimal
same,Effect on HBsAg level of post-treatment of infected cells only,HepG2.2.15-derived HBV; during 11 days of culture after washing,minimal
same,HBsAg level in the culture medium of HepG2.2.15 cells compared to Ctn-treated cells,HepG2.2.15 cells [1],comparable
same,HBV DNA in the culture medium of HBV-infected human primary hepatocytes,HBV genotype C,significant reductions
same,HBeAg level in HBV-infected human primary hepatocytes,HBV genotype C,significant reductions
same,Viability of treated HepG2.2.15 cells,HepG2.2.15 cells [2],88.6%
same,"Cell viability, percentage of Ctn-treated cells",HepG2-NTCP cells,77.6 ± 6.9%
